Measurements reported in patent publication US10947252B2, “Inhibitors of KEAP1-Nrf2 protein-protein interaction” (Janssen Pharmaceutica NV, priority 2018, dated 2021).

Legend:
[1] = target: Kelch domain of human KEAP1 (321-624 aa) (Homo sapiens (Human), UniProt Q14145); test: KEAP1 KELCH ThermoFluor binding assay; conditions: KEAP Kelch […], 1,8-ANS, pH 7.0, average of results obtained, read-out: Tf Kd;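 also: Ligand-induced melting temperature shift of E. coli-expressed KEAP1 Kelch protein, Kd estimated from concentration-response curves of ΔTm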
[2] = test system: Glo-Response ARE-luc2P HEK293 cell line; test: ARE luciferase reporter cell-based assay; conditions: average of results obtained;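 also: luciferase signal tracks Nrf2 activation of the ARE once compounds disrupt KEAP1-Nrf2 binding, read with One-Glo reagent, DMSO serving as low control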

Chain of Kelch domain of human KEAP1 (321-624 aa) (Q14145 321-624): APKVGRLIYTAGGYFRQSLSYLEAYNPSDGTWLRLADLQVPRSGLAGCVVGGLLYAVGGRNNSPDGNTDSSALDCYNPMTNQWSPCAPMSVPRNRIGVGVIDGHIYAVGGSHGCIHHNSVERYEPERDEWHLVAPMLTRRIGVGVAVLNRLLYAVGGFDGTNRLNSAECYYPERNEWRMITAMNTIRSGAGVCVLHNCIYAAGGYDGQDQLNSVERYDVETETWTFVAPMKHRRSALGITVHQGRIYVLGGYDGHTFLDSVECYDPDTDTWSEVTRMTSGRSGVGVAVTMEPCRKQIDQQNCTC

Row | SMILES | Kd [1] [nM] | EC50 ([2]; Homo sapiens, HEK293, 24 h) [nM] | EC50 ([2]; 24 hours) [nM]
1 | Cc1cnc2c(c1)S(=O)(=O)N(Cc1cc([C@H](c3ccn4c(C(F)(F)F)nnc4c3C)C(C)(C)C(=O)O)ccc1C)CC1(CCOCC1)O2 (single isomer, unassigned) [Example 408, (*R)-2,2-dimethyl-3-(4-methyl-3-((8′-methyl-1′,1′-dioxido-2,3,5,6-tetrahydrospiro[pyran-4,4′-pyrido[2,3-b][1,4,5]oxathiazepin]-2′(3′H)-yl)methyl)phenyl)-3-(8-methyl-3-(trifluoromethyl)-[1,2,4]triazolo[4,3-a]pyridin-7-yl)propanoic Acid] | 1280 | – | 790
2 | Cc1ccc([C@@H](c2ccn3c(C(F)(F)F)nnc3c2C)C(C)(C)C(=O)O)cc1CN1CC2(CCOCC2)Oc2ncccc2S1(=O)=O (single isomer, unassigned) [Example 409, (*S)-3-(3-((1′,1′-dioxido-2,3,5,6-tetrahydrospiro[pyran-4,4′-pyrido[2,3-b][1,4,5]oxathiazepin]-2′(3′H)-yl)methyl)-4-methylphenyl)-2,2-dimethyl-3-(8-methyl-3-(trifluoromethyl)-[1,2,4]triazolo[4,3-a]pyridin-7-yl)propanoic Acid] | < 1 | 2.64 | –
3 | Cc1ccc([C@H](c2ccn3c(C(F)(F)F)nnc3c2C)C(C)(C)C(=O)O)cc1CN1CC2(CCOCC2)Oc2ncccc2S1(=O)=O (single isomer, unassigned) [Example 410, (*R)-3-(3-((1′,1′-dioxido-2,3,5,6-tetrahydrospiro[pyran-4,4′-pyrido[2,3-b][1,4,5]oxathiazepin]-2′(3′H)-yl)methyl)-4-methylphenyl)-2,2-dimethyl-3-(8-methyl-3-(trifluoromethyl)-[1,2,4]triazolo[4,3-a]pyridin-7-yl)propanoic Acid] | 2400 | 1220 | –
4 | CCn1nnc2c(C)c([C@H](CC(=O)O)c3ccc(C)c(CN4CC5(CCOCC5)Oc5ccc(F)cc5S4(=O)=O)n3)ccc21 (single isomer, unassigned) [Example 418, (*S)-3-(1-ethyl-4-methyl-1H-benzo[d][1,2,3]triazol-5-yl)-3-(6-((8-fluoro-1,1-dioxido-2′,3′,5′,6′-tetrahydrospiro[benzo[b][1,4,5]oxathiazepine-4,4′-pyran]-2(3H)-yl)methyl)-5-methylpyridin-2-yl)propanoic Acid] | < 1 | 0.96 | –

Now from value to compound, other results behind:

Row | Kd [1] [nM] | SMILES | EC50 ([2]; Homo sapiens, HEK293, 24 h) [nM] | EC50 ([2]; 24 hours) [nM]
5 | < 1 | Cc1ccc([C@H](CC(=O)O)c2ccc3c(nnn3CC3CC3)c2C)cc1CN1C[C@H]2CCCN2c2ncccc2S1(=O)=O (single isomer, unassigned) [Example 402, (*S)-3-(1-(Cyclopropylmethyl)-4-methyl-1H-benzo[d][1,2,3]triazol-5-yl)-3-(3-(((R)-5,5-dioxido-7a,8,9,10-tetrahydropyrido[2,3-f]pyrrolo[2,1-d][1,2,5]thiadiazepin-6(7H)-yl)methyl)-4-methylphenyl)propanoic Acid] | 27.9 | –
6 | < 1 | Cc1ccc([C@@H](CC(=O)O)c2cc(OC3CC3)c3c(c2)nnn3C)cc1CN1C[C@H]2CCCCN2c2ncccc2S1(=O)=O (single isomer, unassigned) [Example 404, (*R)-3-(7-Cyclopropoxy-1-methyl-1H-benzo[d][1,2,3]triazol-5-yl)-3-(3-(((*R)-5,5-dioxido-7,7a,8,9,10,11-hexahydro-6H-dipyrido[2,1-d:2′,3′-f][1,2,5]thiadiazepin-6-yl)methyl)-4-methylphenyl)propanoic Acid] | 19.6 | –
7 | < 1 | Cc1ccc([C@H](CC(=O)O)c2cc(OC3CC3)c3c(c2)nnn3C)cc1CN1C[C@H]2CCCCN2c2ncccc2S1(=O)=O (single isomer, unassigned) [Example 405, (*S)-3-(7-Cyclopropoxy-1-methyl-1H-benzo[d][1,2,3]triazol-5-yl)-3-(3-(((*R)-5,5-dioxido-7,7a,8,9,10,11-hexahydro-6H-dipyrido[2,1-d:2′,3′-f][1,2,5]thiadiazepin-6-yl)methyl)-4-methylphenyl)propanoic Acid] | 7.4 | –
